“Also recorded” adds a separate entry of the source.
Experiments:
[1] = CellTiter-Glo cell viability assay in hNSC; assay type: cell-based, human; details: human, human neural stem cells (hNSC)
human neural stem cells = experiment: CellTiter-Glo cell viability assay in hNSC; assay type: cell-based; details: for IC50: Homo sapiens, Neural stem cell, 1 h, read-out: Viability: IC50, hNSC
HDAC I/II [2] = experiment: HDAC-Glo I/II assay in human neural stem cells; assay type: cell-based; details: cherry-pick confirmation; for HDAC-Glo: Efficacy, hNSC: maximal response; for IC50: read-out: HDAC-Glo: IC50, hNSC, 11 concentrations, 1 hour
HCT116 cells = experiment: CellTiter-Glo cell viability assay in HCT116; assay type: cell-based, human; details: for IC50: Homo sapiens, HCT-116, 1 h, read-out: Viability: IC50, HCT116
[3] = CellTiter-Glo cell viability assay in HCT116; assay type: cell-based, human; details: human, HCT116 cells
HDAC I/II [4] = experiment: HDAC-Glo I/II assay in HCT116 cells; assay type: cell-based, human; details: for HDAC-Glo: Efficacy, HCT116 / Efficacy, HDAC-Glo I/II HCT116 assay: maximal response; for IC50, HDAC-Glo activity: HCT116, validation with epigenetics libraries, 0.7 nM-46 μM
HDAC6 = molecular target: T1, HDAC6 (Homo sapiens, UniProt Q9UBN7); experiment: Fluorogenic isoform-specific HDAC assay, HDAC6; assay type: biochemical; details: 20 μM
T1 sequence (Q9UBN7 1-1215): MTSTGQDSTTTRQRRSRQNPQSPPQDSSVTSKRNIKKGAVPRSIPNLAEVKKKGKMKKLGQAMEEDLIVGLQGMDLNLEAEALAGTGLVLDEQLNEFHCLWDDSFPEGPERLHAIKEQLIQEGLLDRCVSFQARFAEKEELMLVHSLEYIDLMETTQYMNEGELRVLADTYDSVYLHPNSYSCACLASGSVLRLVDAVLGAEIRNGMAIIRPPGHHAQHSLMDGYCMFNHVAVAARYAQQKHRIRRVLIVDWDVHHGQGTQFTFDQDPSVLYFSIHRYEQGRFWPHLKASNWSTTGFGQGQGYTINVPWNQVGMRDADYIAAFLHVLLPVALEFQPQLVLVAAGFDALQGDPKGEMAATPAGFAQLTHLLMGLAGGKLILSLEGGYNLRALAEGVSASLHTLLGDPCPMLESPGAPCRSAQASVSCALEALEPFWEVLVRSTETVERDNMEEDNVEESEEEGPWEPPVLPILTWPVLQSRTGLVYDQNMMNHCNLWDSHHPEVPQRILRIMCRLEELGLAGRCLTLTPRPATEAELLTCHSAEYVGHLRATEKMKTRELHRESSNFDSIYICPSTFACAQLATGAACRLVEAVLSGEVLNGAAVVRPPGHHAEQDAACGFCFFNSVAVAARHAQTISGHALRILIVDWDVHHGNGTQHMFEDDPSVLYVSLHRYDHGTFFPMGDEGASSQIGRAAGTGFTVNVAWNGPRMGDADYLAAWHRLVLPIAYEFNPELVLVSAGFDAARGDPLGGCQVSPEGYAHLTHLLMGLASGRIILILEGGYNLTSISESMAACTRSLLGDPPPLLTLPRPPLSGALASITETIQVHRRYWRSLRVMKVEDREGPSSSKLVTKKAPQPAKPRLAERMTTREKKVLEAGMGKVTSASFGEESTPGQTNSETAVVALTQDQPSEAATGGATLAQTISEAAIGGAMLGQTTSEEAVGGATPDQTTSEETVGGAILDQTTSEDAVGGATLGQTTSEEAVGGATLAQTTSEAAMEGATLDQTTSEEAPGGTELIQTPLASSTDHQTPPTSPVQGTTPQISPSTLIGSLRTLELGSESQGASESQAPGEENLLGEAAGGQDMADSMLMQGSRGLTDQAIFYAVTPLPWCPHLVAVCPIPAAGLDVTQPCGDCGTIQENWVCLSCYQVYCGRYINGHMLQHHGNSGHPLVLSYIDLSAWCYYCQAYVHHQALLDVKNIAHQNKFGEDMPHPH

HDAC3 = HDAC3 (Homo sapiens, UniProt O15379); experiment: Fluorogenic isoform-specific HDAC assay, HDAC3; assay type: biochemical; details: 20 μM
Sequence of HDAC3 (O15379 whole entry, canonical isoform): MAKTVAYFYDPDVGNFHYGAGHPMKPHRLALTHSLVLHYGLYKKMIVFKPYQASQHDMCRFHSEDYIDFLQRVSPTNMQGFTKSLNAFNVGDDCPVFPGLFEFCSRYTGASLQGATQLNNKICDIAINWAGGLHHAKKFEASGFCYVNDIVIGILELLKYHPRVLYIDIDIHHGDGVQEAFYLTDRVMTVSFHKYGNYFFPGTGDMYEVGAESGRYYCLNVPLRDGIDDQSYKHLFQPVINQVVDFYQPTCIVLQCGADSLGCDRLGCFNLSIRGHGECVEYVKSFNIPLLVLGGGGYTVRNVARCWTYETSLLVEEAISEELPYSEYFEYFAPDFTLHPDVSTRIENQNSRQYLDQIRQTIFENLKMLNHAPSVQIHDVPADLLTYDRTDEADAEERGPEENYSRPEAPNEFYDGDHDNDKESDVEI
Sequence of HDAC3 (Q9Y618 395-489 partner limits assumed): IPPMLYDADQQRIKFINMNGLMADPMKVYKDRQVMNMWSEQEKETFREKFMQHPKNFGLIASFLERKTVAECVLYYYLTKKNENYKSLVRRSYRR

[5] = system: class I and II HDAC enzymes; experiment: Panel of fluorogenic assays against ten class I and II HDAC isoforms; assay type: biochemical, human; details: 20 μM
HDAC I/II [6] = experiment: HDAC-Glo I/II assay in HEK293 cells; assay type: cell-based, human; details: HEK293, validation with epigenetics libraries, 0.7 nM-46 μM
[7] = read-out: HDAC-Glo: IC50, HCT116, cherry-pick confirmation, 11 concentrations, 1 hour
[8] = read-out: IC50, HDAC-Glo I/II HCT116 assay, powder confirmation
[9] = cherry-pick confirmation, 1 hour

| SMILES | viability at 1 h [1] | IC50 (human neural stem cells) | HDAC-Glo: Efficacy, hNSC (HDAC I/II [2]) | IC50 (HDAC I/II [2]) | IC50 (HCT116 cells) | viability at 1 h [3] | HDAC-Glo: Efficacy, HCT116 (HDAC I/II [4]; cherry-pick confirmation) | IC50 (HDAC I/II [4]; [7]) | Efficacy, HDAC-Glo I/II HCT116 assay (HDAC I/II [4]; powder confirmation) | IC50 (HDAC I/II [4]; [8]) | IC50, HDAC-Glo activity (HDAC I/II [6]) | IC50, HDAC-Glo activity (HDAC I/II [4]) | further results |
| --- | --- | --- | --- | --- | --- | --- | --- | --- | --- | --- | --- | --- | --- |
| O=C(O)c1cccc(-c2noc(-c3ccccc3F)n2)c1 [Ataluren (PTC-124), Ataluren] | 86 ± 60.2% | 14.3 ± 0.93 µM | 109 ± 3% | 0.8 ± 0.05 µM | 14.4 ± 2.45 µM | 103% | 111 ± 4% | 0.83 µM |  |  |  |  |  |
| CNC(=O)c1ccccc1Sc1ccc2c(/C=C/c3ccccn3)n[nH]c2c1 [Axitinib] |  |  | 6.65 ± 0.76 (106 ± 4) % |  |  |  | 2.97 ± 0.34 (105 ± 3) % |  |  |  |  |  | inhibition of HDAC6 (in words) (HDAC6): inhibited HDADC6 the most |
| O=S(=O)(O)c1ccc2[nH]c(-c3ccccc3)nc2c1 [Ensulizole] | 58% | 16 ± 1.04 µM | 111 ± 1% | 1.94 ± 0.97 µM | 13.4 ± 2.8 µM | 70% | 116 ± 5% | 6.13 ± 3.06 µM | 98 ± 0% | 1.66 ± 0.73 µM |  |  | inhibition of HDAC3 (in words) (HDAC3): selectively inhibited; also recorded: selective to HDAC3 |
| CC(=O)Oc1ccccc1C(=O)Nc1ncc([N+](=O)[O-])s1 [Nitazoxanide] | 40% | 12.4 ± 4.65 µM | 104 ± 1% | 1.05 ± 0.12 µM | 23.6 ± 12 µM | 62% | 116 ± 1% | 1.6 ± 0.1 µM | 99 ± 0% | 1.35 ± 0.14 µM |  |  |  |
| O=C(CCCCCN1C(=O)c2cccc3cccc(c23)C1=O)NO [Scriptaid] |  |  | 113 ± 6% | 1.19 ± 0.25 µM |  |  | 123 ± 3% | 1.87 ± 0.22 µM | 93 ± 1% | 1.76 ± 0.24 µM |  |  | Viability: IC50, hNSC (human neural stem cells; [9]): Inactive; inhibition against all class I and II HDAC enzymes [5]: over 80%; inhibition of HDAC isoforms (in words) ([5]; Figure 3): inhibited activities of all isoforms; Viability: IC50, HCT116 (HCT116 cells; [9]): Inactive |
| CCCC(=O)[O-].[Na+] [sodium butyrate] |  |  |  |  |  |  |  |  |  |  | did not show concentration-dependent inhibition | did not show concentration-dependent inhibition |  |
| O=C(O)CCCc1ccccc1 [sodium phenylbutyrate] |  |  |  |  |  |  |  |  |  |  | did not show concentration-dependent inhibition | did not show concentration-dependent inhibition |  |
| CCCC(CCC)C(=O)O [valproic acid] |  |  |  |  |  |  |  |  |  |  | did not show concentration-dependent inhibition | did not show concentration-dependent inhibition |  |

Source: PMC4917448 (Journal of biomolecular screening, 2016)
